Measured values: patent US5798097A, “Immunogobulin conjugates” (Pharmacia & Upjohn S.p.A., priority 1987, dated 1998)

Experiments:
[1] = system: murine thymoma ITT(1) 75NS E3 (Ly-2^+); experiment: 30 minute inhibition assay ([^3 H]-thymidine incorporation), E3; format: cell-based; details: 0.5 h
From the text: (§1) The cell lines examined in this study included the (Ly-2^+) murine thymoma ITT(1) 75NS E3 variant (E3) (Smyth et al, J. Natl Cancer Inst. 1986 76 503-510), the (Ly-2^-, TFR^-) lymphoma EL4 (Horowitz et al, Science 1968 160 533-535), the (TFR^+) human cell line CEM (Foley et al Cancer 1965 18 522-529) and the (250-30.6^+) human cell line COLO 205. Cells were maintained in vitro in Dulbecco's Modified Eagle's medium (DME) or RPMI 1640 medium (Flow Laboratories, Sydney, Australia), supplemented with 10% heat inactivated newborn calf serum (Flow), 2 mM glutamine (Commonwealth Serum Laboratories, Sydney, Australia); 100 ug/ml streptomycin (Glaxo, Melbourne, Australia) and 100 I.U./ml penicillin (Commonwealth Serum Laboratories). The E3 tumour was maintained in vivo by serial passage into (C57BL/6×BALB/c)F1 mice (CBF1 mice). Cells from the ascites fluid were washed and centrifuged (400 g×5 min) twice in phosphate buffered saline (PBS), pH7.3, resuspended in PBS and injected subcutaneously (s.c.) into the abdominal wall of mice; these developed into palpable tumours prior to treatment. Mice were subjected to a series of intraveneous (i.v.) or intratumour (i.t.) treatments and the subsequent size of tumours was measured daily with a caliper square, measuring along the perpendicular axes of the tumours. Data was recorded as mean tumour size (product of two diameters ± standard error).
(§2) (b) 30 minute inhibition assay: 200 ul of cells (2-5×10^6 /ml) were collected in sterile Eppendorf tubes, resuspended in sterile drug or conjugate and mixed for 30 min at 37° C. Cells were then centrifuged (400 g×5 min), resuspended in growth medium and 100 ul aliquots were seeded into a microtitre plate using duplicate wells for each sample before an incubation period of 16-24 hours. After the incubation period in both these assays, 50 ul of growth medium containing 1 uCi of [^3 H]-thymidine (specific activity=5 Ci/mmol; Amersham) was added and the plates incubated for 2-4 hours. Cells were then harvested and dried, and individual samples were separated and counted on a beta scintillation counter.

[2] = system: murine thymoma ITT(1) 75NS E3 (Ly-2^+); experiment: 24 hour inhibition assay ([^3 H]-thymidine incorporation), E3; format: cell-based; details: Mus musculus
From the text: as §1, with “The E3 tumour was maintained in vivo by serial passage into (C57BL/6×BALB/c)F1 mice (CBF1 mice). Cells from the ascites fluid were washed and centrifuged (400 g×5 min) twice in phosphate buffered saline (PBS), pH7.3, resuspended in PBS and injected subcutaneously (s.c.) into the abdominal wall of mice; these developed into palpable tumours prior to treatment.” left out
(§3) (b) 30 minute inhibition assay: 200 ul of cells (2-5×10^6 /ml) were collected in sterile Eppendorf tubes, resuspended in sterile drug or conjugate and mixed for 30 min at 37° C. […] Cells were then harvested and dried, and individual samples were separated and counted on a beta scintillation counter.

[3] = system: (L3T4^+) lymphoma EL4; experiment: 30 minute inhibition assay ([^3 H]-thymidine incorporation), EL4; format: cell-based; details: 0.5 h; Table 3; EL4, 30 min; read-out: Mean I.D.50 values (Ida (M))
Protocol: as §2, with “counter. Incorporation of [^3 H]-thymidine was expressed as a percentage inhibition in incorporation of controls.” for “counter.”
(§4) The cell lines examined in this study included the (Ly-2^+) murine thymoma ITT(1)75NS E3 variant (E3), the (L3T4^+) lymphoma EL4 (Horowitz et al, Science 1968 160 533-535), the human colon carcinoma Colo 205 (Semple et al, Cancer Res. 1978 38 1345-1355) and the (Ly-2^-, L3T4^-) human T cell leukemia CEM (Foley et al, Cancer 1965 18 522-529). Cells were maintained in vitro as described in Example 1. […] Mice were then subjected to a series of i.v. treatments and the size of the tumours was measured daily with a caliper square, measuring along the perpendicular axes of the tumours. […]

[4] = Acute toxicity, single i.v. injection in CBA mice; format: in vivo; details: mouse, in vivo, iv; Table 2; Ida (mg/kg)
Protocol: (§5) Groups of 10-20 CBA mice were given a single i.v. injection of various doses of Ida or Ida-anti-Ly-2.1 and the survival of mice was recorded against the dose of drug delivered in mg/kg. The organs of these mice were removed and weighed prior to formalin fixation and staining by haematoxylin and eosin.
(§6) For acute toxicity experiments groups of 10 CBA (Ly2.1^+) mice were given a single injection of various doses of either Ida, Ida-anti-Ly-2.1 or Ida-anti-TFR. […] Ida-MoAb conjugates were not tested to an LD50 dose.

[5] = system: CBA mice; experiment: Acute toxicity, single i.v. injection in CBA mice; format: in vivo
Protocol: as §5, §6

[6] = system: human cell line CEM; experiment: cells; format: cell-based; details: 0.5 h, Table 3, 30 min, read-out: Mean I.D.50 values (Ida (M))
Protocol: (§7) The cell lines examined in this study included the (Ly-2^+) murine thymoma ITT(1) 75NS E3 variant (E3) (Smyth et al, J. Natl Cancer Inst. 1986 76 503-510), the (Ly-2^-, TFR^-) lymphoma EL4 (Horowitz et al, Science 1968 160 533-535), the (TFR^+) human cell line CEM (Foley et al Cancer 1965 18 522-529) and the (250-30.6^+) human cell line COLO 205. […] Mice were subjected to a series of intraveneous (i.v.) or intratumour (i.t.) treatments and the subsequent size of tumours was measured daily with a caliper square, measuring along the perpendicular axes of the tumours. Data was recorded as mean tumour size (product of two diameters ± standard error).
as §3
(§8) Data was recorded as mean tumour size (product of two diameters ± standard error).

[7] = system: CBA mice (organs); experiment: Histopathology after single i.v. dose; format: in vivo; details: 1.0 mg/kg i.v.
Protocol: as §5

[8] = system: COLO 205; experiment: 24 hour inhibition assay ([^3 H]-thymidine incorporation), COLO 205; format: cell-based; details: Homo sapiens
Protocol: as §7, with “error). […]” for “error).”
as §3, with “counter. Incorporation of [^3 H]-thymidine was expressed as a percentage inhibition in incorporation of controls. […]” for “counter.”

[9] = system: (L3T4^+) lymphoma EL4; experiment: 24 hour inhibition assay ([^3 H]-thymidine incorporation), EL4; format: cell-based; details: Table 3; EL4, 24 hr; read-out: Mean I.D.50 values (Ida (M))
Protocol: (a) 24 hour inhibition assay: 100 ul of cells (2-5×10^6 /ml) were added to a flat-bottomed microtitre plate and incubated for 1 hour at 37° C. Free Idarubicin (Ida) (dissolved in PBS) and Ida-MoAb conjugates were filtered aseptically and dilutions were performed in sterile PBS; 50 ul of free Ida or conjugate were added to the cells using duplicate wells for each sample; control wells received 50 ul of PBS and the cells were cultured at 37° C., 7% CO2 for 24 hours.
as §3, with “counter. Incorporation of [^3 H]-thymidine was expressed as a percentage inhibition in incorporation of controls.” for “counter.”
as §4, with “522-529).” for “522-529). Cells were maintained in vitro as described in Example 1.”

[10] = system: solid E3 tumour; experiment: Intratumour treatment of E3 tumours in CBF1 mice; format: in vivo; details: days 5 and 6, total Ida=30 ug
Protocol: The E3 tumour was maintained in vivo by serial passage into (C57BL/6×BALB/c)F1 mice (CBF1 mice). Cells from the ascites fluid were washed and centrifuged (400 g×5 min) twice in phosphate buffered saline (PBS), pH7.3, resuspended in PBS and injected subcutaneously (s.c.) into the abdominal wall of mice; these developed into palpable tumours prior to treatment. Mice were subjected to a series of intraveneous (i.v.) or intratumour (i.t.) treatments and the subsequent size of tumours was measured daily with a caliper square, measuring along the perpendicular axes of the tumours. Data was recorded as mean tumour size (product of two diameters ± standard error).

[11] = system: COLO 205 xenografts; experiment: i.v. treatment of COLO 205 xenografts in nude mice; format: in vivo, nude (nu/nu) mice; human tumour; details: total 275 ug Ida
From the text: Injection of 2×10^6 cells subcutaneously into the abdominal wall yielded a palpable lump within 4 days (approx. 0.1 cm^2).

[12] = system: COLO 205; experiment: 30 minute inhibition assay ([^3 H]-thymidine incorporation), COLO 205; format: cell-based; details: Homo sapiens, 0.5 h
Protocol: as §7, §3, §8

[13] = system: E3 thymoma; experiment: i.v. treatment of s.c. E3 thymoma in CBF1 mice (2.0×10^6 cells); format: in vivo; details: 20 ug Ida, days 4 and 5
From the text: as §1, with “error). […]” for “error).”

[14] = system: tumour cell lines tested; experiment: 24 hour assay, tumour cell lines tested (Example 2); format: cell-based
Protocol: as §2, with “(b) 30 minute inhibition assay: 200 ul of cells (2-5×10^6 /ml) were collected in sterile Eppendorf tubes, resuspended in sterile drug or conjugate and mixed for 30 min at 37° C.” left out

[15] = system: E3 and CEM cell lines
Protocol: as §2

[16] = system: human cell line CEM; experiment: 24 hour inhibition assay ([^3 H]-thymidine incorporation), CEM; format: cell-based
From the text: as §1, with “The E3 tumour was maintained in vivo by serial passage into (C57BL/6×BALB/c)F1 mice (CBF1 mice). Cells from the ascites fluid were washed and centrifuged (400 g×5 min) twice in phosphate buffered saline (PBS), pH7.3, resuspended in PBS and injected subcutaneously (s.c.) into the abdominal wall of mice; these developed into palpable tumours prior to treatment.” left out
as §3

SMILES: CC(=O)[C@]1(O)Cc2c(O)c3c(c(O)c2[C@@H](O[C@H]2C[C@H](N)[C@H](O)[C@H](C)O2)C1)C(=O)c1ccccc1C3=O [Ida, 4-demethoxy-daunorubicin]
- IC50 ([1]; E3, 30 min, compared with COLO 205, Example 1, read-out: dose response to free drug (I.D.50)): 9.8e-07 M
- IC50 ([1]; Mus musculus, E3, incubated 30 minutes, Example 1, read-out: I.D.50 (the source's name)): 5.2e-07 M
- IC50 ([1]; Mus musculus, Table 3, E3, 30 min, read-out: Mean I.D.50 values (Ida (M))): 1.8e-07 M
- IC50 ([2]; Table 1, E3, 24 hour assay, read-out: Mean I.D.50 (50% inhibition in [^3 H]-thymidine incorporation of controls)): 1.2e-07 M
- IC50 ([2]; Table 3, E3, 24 hr, read-out: Mean I.D.50 values (Ida (M))): 7.8e-08 M
- IC50 [3]: 1.6e-07 M
- LD50 [4]: 3 mg/kg
- L.D.10 ([5]; Table 2, Ida (mg/kg)): 0.75 mg/kg
- LD10 ([5]; mg/kg of Ida, single i.v.): 0.75 mg/kg
- initial weight loss (of original weight) ([5]; single i.v. injection, all mice): up to 25%
- IC50 [6]: 2.2e-07 M
- spleen histopathology ([7]; 15 days): atrophy of the white pulp in the spleen
- cardiac histopathology ([7]; data not shown): some hypertrophy of cardiac muscle fibres
- IC50 ([8]; Table 3, Colo 205, 24 hr, read-out: Mean I.D.50 values (Ida (M))): 8e-08 M
- IC50 ([8]; target cell line COLO 205, Example 1, read-out: I.D.50 (the source's name)): 6e-08 M
- IC50 [9]: 6.6e-08 M
- anti-tumour activity / effect on tumour growth [10]: not affecting tumour growth
- mice survived [11]: 2 out of 10
- IC50 ([12]; COLO 205, 30 min, Example 1, read-out: dose response to free drug (I.D.50)): 9.2e-07 M
- IC50 ([12]; Table 3, Colo 205, 30 min, read-out: Mean I.D.50 values (Ida (M))): 1.2e-07 M
- tumour reduction [13]: up to 50%
- mice died ([13]; of 10 mice): 3
- activity of free Ida relative to Ida-MoAb conjugates [14]: 4-10 times
- cytotoxicity of free Ida compared with conjugates [15]: more cytotoxic to both E3 and CEM than Ida-anti-Ly-2.1 and Ida-anti-TFR respectively
- IC50 ([16]; Table 1, 24 hour assay, read-out: Mean I.D.50 (50% inhibition in [^3 H]-thymidine incorporation of controls)): 2.2e-07 M
- IC50 ([16]; Table 3, 24 hr, read-out: Mean I.D.50 values (Ida (M))): 9e-08 M
